Data from patent US4798821A, “Antihypertensive therapy for diabetics” (Merck & Co., Inc., priority 1987, dated 1989).

Experiments:
Format in all cases: in vivo, rat
diabetic rats = assay: Systolic blood pressure (tail cuff) in streptozotocin-diabetic rats; conditions: treated diabetic rats
Protocol: (§1) In the determination, the following groups of rats were employed, each group consisting of ten rats.
Group 3 Diabetic rats treated with cyclopeptide compound
Normal rats were commercially available laboratory rats identified as CD rats.
(§2) Diabetic rats were CD rats in which diabetes was induced by the injection of streptozotocin into the femoral vein at a dose of 60 mg/kg. Hyperglycemia was confirmed by measuring glucose levels in blood obtained by orbital bleeding. (A standard medical technique for obtaining blood form the orbital sinus is described in "Laboratory Animal Medicine" edited by J. G. Fox et al., Academic Press, Inc., Orlando, Fla., 1984.)
Dosing was initiated with cyclopeptide compound four days after injection of streptozotocin to induce diabetes in the diabetic rats. […]
(§3) The rats were housed two to a box and fed standard rat food and water ad libitum. Blood pressure was measured indirectly with a photoelectric system with a tail cuff containing a built in sensor (Harvard Biosciences,Cambridge, MA). The instrument was calibrated on each day of use with a sphygmomanometer. Six to eight recordings were made for each rat.
Blood pressure measurements were initated 8 days following injection of streptozotocin (4 days after start of treatment).
FIG. 1 is a graph in which the blood pressures of normal, diabetic and treated diabetic rats are plotted against a period of time in days. (Each point is the mean of 7 to 10 rats±standard deviation.)

[1] = system: spontaneously hypertensive (SH) rats; assay: Systolic blood pressure (tail cuff) in spontaneously hypertensive rats; conditions: treated SH rats
Protocol: as §1
Group 4 Spontaneously hypertensive (SH) rats
Group 5 Spontaneously hypertensive rats treated with cyclopeptide compound
SH rats were commercially available spontaneously hypertensive rats.
(§4) Dosing was initiated with cyclopeptide compound four days after injection of streptozotocin to induce diabetes in the diabetic rats. Dosing was carried out by administering the cyclopeptide compound in the drinking water at a dose of 50 μg/rat/day.
as §3
The blood pressure measurements of treated and untreated spontaneously hypertensive rats compared with normal rats may be seen in FIG. 2.
FIG. 2 is a graph in which the systolic blood pressure of normal, spontaneously hypertensive and treated spontaneously hypertensive rats are plotted against a period of time in days.

[2] = Body weight of treated rats; conditions: for Body Weight (after 38 days): mean ± std. dev.
Protocol: as §1, §2, §4, §3
(§5) At the beginning of the experiment, the mean weights of the CD rats were 160 grams and the SH rats were 220 grams. The body weights after 38 days may be seen in Table 1. The serum glucose level, measured after 27 days of treatment also may be seen in Table 1.

[3] = Serum glucose level of treated rats; conditions: for Serum Glucose (after 27 days): after 27 days of treatment, mean ± std. dev.
Protocol: as §1, §2, §4, §3, §5

[4] = diabetic rat or spontaneously hypertensive rat

- Serum Glucose (after 27 days) ([3]; Diabetic CD rats (streptozotocin) + Compound IA in drinking water): 352 ± 52 mg %
- Serum Glucose (after 27 days) ([3]; SH rats + Compound IA in drinking water, P = <0.05 relative to normal CD): 90 ± 10 mg %
- effect on serum glucose level (in words) [3, 4]: no significant effect
Structure (SMILES): CC(C)[C@@H]1NC(=O)[C@H](CCCCN)NC(=O)[C@@H](Cc2c[nH]c3ccccc23)NC(=O)[C@H](Cc2ccc(O)cc2)NC(=O)[C@H](C)N(C)C(=O)[C@H](Cc2ccccc2)NC1=O [Compound IA, cyclo-(N-MeAla-Tyr-(D)Trp-Lys-Val-Phe)]
- reduction in blood pressure (diabetic rats; 33rd day of treatment, 100 μg/rat/day from 21st day, P=<0.005): 18%
- reduction in blood pressure (diabetic rats; 38th day of treatment, 100 μg/rat/day from 21st day, P=<0.001): 21%
- reduction in blood pressure (diabetic rats; after 17 days of treatment, 50 μg/rat/day in drinking water, P=<0.05): 14%
- reduction in systolic blood pressure ([1]; 10th day of treatment, P=<0.02): 11%
- inhibition of blood pressure after the 10th day ([1]; after 10th day, even after increasing dose to 200 μg/rat/day on 40th day): no further inhibition was evident
- Body Weight (after 38 days) ([2]; Diabetic CD rats (streptozotocin) + Compound IA in drinking water, 50 μg/rat/day, doubled to 100 μg/rat/day on 21st day): 281 ± 63 gms
- Body Weight (after 38 days) ([2]; SH rats + Compound IA in drinking water): 285 ± 17 gms
- effect on body weight (in words) [2, 4]: no significant effect
